Results published in the NIST ThermoML archive (doi:10.1021/je034102r).

Experiment: molar heat capacity at saturation pressure
Details: Small (less than 1 g) adiabatic calorimetry

CCCCn1cc[n+](C)c1.F[P-](F)(F)(F)(F)F [1-butyl-3-methylimidazolium hexafluorophosphate]
molar heat capacity [J/K/mol]
Details | Crystal | Glass
5 K | 1.007 | 1.946
5.09 K | – | 2.049
5.13 K | 1.065 | –
5.36 K | – | 2.336
5.41 K | 1.231 | –
5.59 K | – | 2.627
5.67 K | 1.405 | –
5.85 K | – | 2.997
5.97 K | 1.625 | –
6.14 K | – | 3.411
6.29 K | 1.927 | –
6.47 K | – | 3.839
6.6 K | 2.264 | –
6.82 K | – | 4.454
6.91 K | 2.566 | –
7.15 K | – | 4.943
7.23 K | 2.994 | –
7.49 K | – | 5.596
7.58 K | 3.435 | –
7.84 K | – | 6.275
7.92 K | 3.848 | –
8.21 K | – | 6.958
8.28 K | 4.395 | –
8.61 K | – | 7.772
8.66 K | 4.99 | –
9 K | – | 8.63
9.07 K | 5.739 | –
9.41 K | – | 9.587
9.49 K | 6.479 | –
9.82 K | – | 10.46
9.92 K | 7.352 | –
10 K | 7.487 | 10.93
10.27 K | – | 11.64
10.35 K | 8.195 | –
10.75 K | 9.005 | –
10.76 K | – | 12.74
11.18 K | 10.04 | –
11.23 K | – | 14.01
11.74 K | 11.29 | 15.2
12.29 K | – | 16.65
12.32 K | 12.57 | –
12.81 K | – | 18.03
12.92 K | 14.08 | –
13.36 K | – | 19.55
13.56 K | 15.72 | –
13.99 K | – | 21.2
14.2 K | 17.26 | –
14.65 K | – | 23.01
14.85 K | 19.06 | –
15 K | 19.41 | 23.95
15.35 K | – | 24.94
15.51 K | 20.76 | –
16.07 K | – | 26.85
16.24 K | 22.77 | –
16.81 K | – | 28.88
17 K | 24.84 | –
17.63 K | – | 31.14
17.78 K | 26.97 | –
18.5 K | – | 33.53
18.66 K | 29.5 | –
19.36 K | – | 35.93
19.54 K | 32.1 | –
20 K | 33.34 | 37.71
20.17 K | – | 38.13
20.45 K | 34.73 | –
21.05 K | – | 40.62
21.38 K | 37.23 | –
22.07 K | – | 43.51
22.32 K | 39.8 | –
23.08 K | – | 46.05
23.31 K | 42.57 | –
24.15 K | – | 49.07
24.37 K | 45.56 | –
25 K | 47.15 | 51.23
25.25 K | – | 51.82
25.51 K | 48.5 | –
26.28 K | – | 54.6
26.64 K | 51.23 | –
27.38 K | – | 57.25
27.83 K | 54.25 | –
28.63 K | – | 60.1
29.06 K | 57.36 | –
29.99 K | – | 63.37
30 K | 59.6 | 63.41
30.21 K | 60.16 | –
31.43 K | – | 66.52
31.51 K | 63.15 | –
